One experiment relates to CACNB1. Kind of experiment: Affinity chromatography on Compound 2 matrix (SDS-PAGE). It counts as binding, human. Conditions: protein retained on compound beads vs blank beads. The text has this:
(§1) The His6-CACNB1: […] were generated from pDEST17-CACNB1 using QuikChange site-directed mutagenesis kit (Stratagene, LaJolla, Calif.). The His6 tagged protein was purified on a Ni-NTA column (Qiagen, Valencia, Calif.). […] J. Biol. Chem. 281, 14961-14970 (2006).

The test system of the next experiment is His6-tagged FKBP52. Kind of experiment: [3H]-FK506 binding on Ni-chelated FLASH plate. Further details: species or system human. Conditions: for binding selectivity for FKBP52 versus FKBP12, higher than that of rapamycin: relative to rapamycin. Here is the method: (§2) Reactions were carried out in triplicate at 25° C. for 30 min. Kd were calculated using methods described by Carreras (Anal. Biochem. 298, 57-61 (2001)).

Experiment [1] has as its system transient mid-cerebral artery occlusion model for ischemic stroke. Particulars: cited from earlier work.
Experiment [2] concerns Ca2+ channels in cultured rat hippocampal neurons. The experiment is described as follows: Whole-cell patch clamp recording of Ca2+ currents in hippocampal neurons. It counts as cell-based. Particulars: 10 μM internal. How it is done:
(§3) The whole-cell configuration of the patch-clamp technique was used to record calcium currents from the cells at room temperature using an EPC-9 amplifier (HEKA, Instrutech Corp.) with the acquisition and analysis program Pulse-PulseFit from HEKA (Lambrecht, Germany). Electrodes were fabricated using a P-87 puller (Sutter Instrument). […] The standard bath recording solution is Ca^2+ and Mg^2+ free HBSS (pH 7.4) containing 10 mM HEPES, 10 mM dextrose, and 4 mM BaCl2. Currents were filtered at 3 kHz, and the inward Ca^2+ currents were recorded from cells held at −90 mV with 10 mV depolarizing steps from −80 mV to 60 mV for 50 ms.
(In general: Patch clamp records ionic current or voltage across a cell membrane.)

For the next experiment, the system named is Human CD4+ T cells. The experiment is described as follows: Immunosuppression assay: IL-2 stimulated CD4+ T-cell proliferation. It is filed as cell-based. Conditions: up to 1 μM. Here is the method:
Human CD4^+ T cells were purified by negative selection from peripheral blood lymphocytes using RosetteSep as per manufacture's instructions (StemCell Technologies, Inc. Vancouver, British Columbia). Tosyl-activated magnetic microspheres (Dynal, Great Neck, N.Y.) were coated with anti-CD3 Ab (1 μg/10^7 microspheres), and anti-CD28Ab ([…]) as described in Blair et al. J. Immunol., 160:12, 1998. […] Protein-coated microspheres were added to purified CD4+T cells (2×10^6cells/mL, ratio 1 bead: 1 cell) and activated for 72 hours in RPMI, 10% fetal calf serum, 2 mM glutamine media. Cells were harvested, washed, and cultured overnight in fresh media and re-stimulated with IL-2 as described in Bennett et al., J. Immunol. 170:711, 2003. […] Seventy-two hours after culture re-stimulation, plates were pulsed with 1 μCi/well tritiated thymidine and incubated for a 6-16 hour period.

Experiment [3] relates to FKBP52, FKBP25 and FKBP12. Kind of experiment: Affinity chromatography on Compound 2 matrix (SDS-PAGE). It counts as binding, human. Particulars: protein retained on compound beads vs blank beads.
A further experiment addresses His6-tagged FKBP12 (Homo sapiens, UniProt P62942). Kind of experiment: [3H]-FK506 binding on Ni-chelated FLASH plate. Here is the method: as §2
Experiment [4] has as its system cultured rat cortical neurons. Kind of experiment: Neuronal survival assay (neurofilament ELISA). It counts as cell-based. Conditions: cultured rat cortical neurons. Here is the method: Cultures were fixed for 30 min with 4% paraformaldehyde at 37° C. Nonspecific binding was blocked by incubating with PBS containing 0.3% Triton X-100 and 5% fetal bovine serum (FBS) for 45 min. Cultures were then incubated overnight at 4° C. with an anti-neurofilament (200 kD) monoclonal antibody (1:1000, clone RT-97, Chemicon, Temecula, Calif.). After washing, a peroxidase-conjugated secondary antibody (1:1000, Vector Labs, Burlingame, Calif.) was applied for 2 h. After three washes, the peroxidase substrate K-BlueMax (Neogen, Lexington, Ky.; Young et al., 1999) was added to the cultures and incubated for 10 min on an orbital shaker. The peroxidase substrate is highly soluble in the K-BlueMax solution. Optical density is then readily measured using a Molecular Devices Spectramax Plus colorimetric plate reader at 650
(§4) Briefly, cortical neuron cultures were prepared from embryonic day 15 (E15) rat embryos (Sprague-Dawley, Charles River Laboratories, Wilmington, Mass.). The embryos were collected, their brains were removed, and the cortices were dissected out in ice-cold phosphate-buffered saline (PBS) without Ca^2+ and Mg^2+. Dissected pieces of cortical tissue were pooled together and transferred to an enzymatic dissociation media containing 20 IU/ml papain in Earle's balanced salt solution (Worthington Biochemical, Freehold, N.J.) and incubated for 30 min at 37° C. After enzymatic dissociation, the papain solution was aspirated and the tissue mechanically triturated with a fire-polished Pasteur pipette in complete media [Neurobasal Medium with B-27 supplement (Gibco, Grand Island, N.Y.), 100 IU/ml penicillin, 100 μg/ml streptomycin, 3.3 μg/ml aphidicolin, 0.5 mM glutamate] containing 2,000 IU/ml DNase and 10-mg/ml ovomucoid protease inhibitor.

Experiment [5] relates to Ca2+ channel in F-11 cells. Kind of experiment: Whole-cell patch clamp recording of Ca2+ currents in F-11 cells. It is filed as cell-based, rat and mouse hybrid. Here is the method:
as §3

The test system of the next experiment is F-11 cells. Kind of experiment: Neurite outgrowth of F-11 cells (neurofilament ELISA). It is filed as cell-based, rat and mouse hybrid. Here is the method:
Cells were fixed with 4% paraformaldehyde for 30 min at 37° C. Nonspecific binding was blocked by incubating with PBS containing 0.3% Triton X-100 and 5% fetal bovine serum (FBS) for 45 min. […] After washing, a peroxidase-conjugated anti-mouse secondary antibody (1:1000) was applied for 2 h. After three washes, the peroxidase substrate K-BlueMax was added to the cultures and incubated for 10 min. Optical density was determined at 650 nm.
(In general: An ELISA detects its analyte on a solid surface through an enzyme-linked reagent.)

Another experiment deals with T1, His6-CACNB1:TGG548TAA (Homo sapiens, UniProt Q02641).
T1 construct: His6 (N); made in house
T1 sequence (Q02641 1-547 limits assumed): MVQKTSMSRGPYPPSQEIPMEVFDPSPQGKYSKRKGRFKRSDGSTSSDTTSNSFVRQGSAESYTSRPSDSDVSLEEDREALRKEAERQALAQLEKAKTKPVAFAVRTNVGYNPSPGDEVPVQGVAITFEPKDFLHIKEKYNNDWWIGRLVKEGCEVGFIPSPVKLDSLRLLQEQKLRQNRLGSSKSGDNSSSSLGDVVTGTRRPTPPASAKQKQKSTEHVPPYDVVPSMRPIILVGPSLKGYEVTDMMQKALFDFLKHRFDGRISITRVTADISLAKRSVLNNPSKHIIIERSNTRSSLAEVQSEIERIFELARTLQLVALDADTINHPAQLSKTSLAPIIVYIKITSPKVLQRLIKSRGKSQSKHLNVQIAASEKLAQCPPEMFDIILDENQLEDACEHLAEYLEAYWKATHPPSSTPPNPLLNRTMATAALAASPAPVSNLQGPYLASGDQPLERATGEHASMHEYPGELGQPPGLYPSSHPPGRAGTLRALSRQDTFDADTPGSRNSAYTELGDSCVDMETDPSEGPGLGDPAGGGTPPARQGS
Kind of experiment: Protein fluorescent quenching. It is filed as binding. Conditions: compound 1 μM, protein 0-8 μM.
Excerpt: as §1

The test system of another experiment is cortical neurons. Kind of experiment: Neurite outgrowth in cortical neurons. It counts as cell-based, rat. Here is the method:
Cortical neurons were fixed using 2% paraformaldehyde for 5 min followed by 4% paraformaldehyde for 5 min. Cells were incubated in blocking solution (0.2% Triton-X+1.5% normal goat serum in PBS) followed by primary (anti-neuronal class III β-tubulin (TUJ1) (Covance Innovative Antibodies, Berkeley, Calif.) and secondary antibody (Alexa Fluor 488 goat anti-mouse) (Molecular Probes, Carlsbad, Calif.). Each step was performed at room temperature for 1 hr. Total neurite outgrowth for each condition was analyzed using the Neuronal Profiling Bioapplication on an ArrayScan HCS Reader (Cellomics, Pittsburgh, Pa.).
as §4

Like-named read-outs stand apart in the source and are kept apart here.

Sequence of His6-tagged FKBP12 (P62942 whole entry): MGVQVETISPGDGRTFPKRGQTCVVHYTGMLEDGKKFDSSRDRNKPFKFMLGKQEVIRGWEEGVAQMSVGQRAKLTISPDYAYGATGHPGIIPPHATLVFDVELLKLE

For the compound `CO[C@H]1C[C@@H]2CC[C@@H](C)[C@@](O)(O2)C(=O)C(=O)N2CCCCC2C(=O)O[C@H]([C@H](C)C[C@@H]2CC[C@@H](O)[C@H](OC)C2)CC(=O)[C@H](C)/C=C(\C)[C@@H](O)[C@@H](OC)C(=O)[C@H](C)C[C@H](C)C2CC[C@H](/C=C/1C)ON2c1ccccc1` (stereo partly drawn) [Rapamycin analogue II, 9,27-dihydroxy-3-{2-[4-hydroxy-3-methoxycyclohexyl]-1-methylethyl}-10,21-dimethoxy-6,8,12,14,20,26-hexamethyl-37-phenyl-4,9,10,12,13,14,15,16,17,18,21,22,23,24,25,26,27,32,33,34,34a-henicosahydro-3H-23,27-epoxy-18,15-(epoxyimino)pyrido[2,1-c][1,4]oxazacyclohentriacontine-1,5,11,28,29(6H, 31H)-pentone], the “binding to CACNB1” value with CACNB1 is on record as “binds”. Moreover, the “Kd(FKBP12)/Kd(FKBP52)” value in the experiment on His6-tagged FKBP52 stood at 229. The “binding selectivity for FKBP52 versus FKBP12, higher than that of rapamycin” value with His6-tagged FKBP52 is 687 fold; in the experiment with His6-tagged FKBP52 (listed as rapamycin analogue II), “at least 600 fold”. The “reduction of infarct volume” value in [1] (10 mg/kg) is 24%; in experiment [1] (30 mg/kg), 23%. Further, the “inhibition of Ca2+ current” value in experiment [2] (N-type Ca2+ channels blocked, after 10 min) is 74.5+/−8.8. Also, the “inhibition of the remaining Ca2+ current” value in experiment [2] (both N- and L-type Ca2+ channels blocked) was 21.3+/−4.4%. The “inhibition of IL-2 stimulated CD4+ T-cell proliferation” value in the experiment on Human CD4+ T cells is “no detectable inhibition”. The “binding to FKBP52, FKBP25 and FKBP12” value in experiment [3] is “binds”.

`CO[C@H]1C[C@@H]2CC[C@@H](C)[C@@](O)(O2)C(=O)C(=O)N2CCCCC2C(=O)O[C@H]([C@H](C)C[C@@H]2CC[C@@H](O)[C@H](OC)C2)CC(=O)[C@H](C)/C=C(\C)[C@@H](O)[C@@H](OC)C(=O)[C@H](C)C[C@H](C)C2C=C[C@H](/C=C/1C)ON2c1ccccc1` (stereo partly drawn) [Rapamycin analogue I, 9,27-dihydroxy-3-{2-[4-hydroxy-3-methoxycyclohexyl]-1-methylethyl}-10,21-dimethoxy-6,8,12,14,20,26-hexamethyl-37-phenyl-4,9,10,12,13,14,15,18,21,22,23,24,25,26,27,32,33,34,34a-nonadecahydro-3H-23,27-epoxy-18,15-(epoxyimino)pyrido[2,1-c][1,4]oxazacyclohentriacontine-1,5,11,28,29(6H, 31H)-pentone] registered a dissociation constant (Kd) on His6-tagged FKBP12 of 4.7 ± 0.4 nM. Moreover, the “neuronal survival, neurofilament ELISA” value in experiment [4] is given as “promote neuronal survival”. Besides, in experiment [5] (5 μM in the bath for 2 hrs), the “Ca2+ current density” value is reported as 3.2+/−0.3 pA/pF and the “decrease of Ca2+ current density vs vehicle” value amounted to 49%. The “whole-cell Ca2+ currents, short bath application” value in [5] (10 min application) is recorded as “not affected”. The “reduction of Ca2+ current” value in experiment [5] (internal application 10 μM, within 10 min, cells responding to BAY-K5552 (L-type)) is reported as 46+/−1.8%. Moreover, the “reduction of Ca2+ current” value in [5] (internal application, cells responding to ωCTX MVIIA (N-type)) is reported as “No significant current reduction”. In the experiment with F-11 cells, the “neurite outgrowth in F-11 cells” value was “promote neurite outgrowth”. Moreover, the “neurofilament content, higher than 50 μM or no compound control” value in the experiment with F-11 cells (5 μM, 96 hrs) is 4-5 fold. Besides, the protein fluorescent quenching entry at His6-CACNB1:TGG548TAA was “linear dose response curve”. Also, in the experiment on cortical neurons, the “neurite outgrowth in cortical neurons” value is reported as “promote neurite outgrowth”.

By Kd is commonly meant the concentration at which binding is half-saturated. Higher therefore signals a looser complex.

(Values after US20100196355A1, “Immunophilin Ligands and Methods for Modulating Immunophilin and Calcium Channel Activity” (Wyeth, priority 2007, published 2010).)
